Experimental data: US9844541B2, “Methods of modulating follicle stimulating hormone activity” (Strasspharma LLC, priority 2012, dated 2017)

What was measured:
[1] = system: follicle stimulating hormone (FSH) receptor (FSH-R); test: Conclusion from endocrine profile: effect on FSH receptor signaling; assay type: in vivo, human; conditions: concluded from the endocrine profile of one patient
Experimental: (§1) Results of reproductive endocrine testing were unique and novel (Table 1). […] elevated FSH and low estrogen level were indicative of a markedly diminished ovarian reserve. However, the presence of preantral follicles and the high AMH value indicated preservation of normal ovarian potential and possible reversal of effect following cessation of therapy.
The endocrine profile of a patient who developed amenorrhea while taking vismodegib (Erivedge™) was determined. […] Secondary amenorrhea, […] of established menses, may result from a variety of conditions, including suppression of the pituitary release of FSH or its hypothalamic control via gonadotropin releasing hormone GnRH. This can be drug induced, but patients presenting in this manner typically have very low or non-detectable gonadotropin (FSH and LH) levels and low estrogen levels. Alternatively, patients with ovarian failure (follicle depletion or menopause) present with high gonadotropins, which may be induced by radiation and/or medication such as chemotherapy.
This led to the conclusion that the cause of amenorrhea in at least this patient treated with visomdegib was due to blockage of the follicle stimulating hormone (FSH) receptor (FSH-R) signaling.

[2] = oral therapy of BCC; cited from earlier work
[3] = system: BCC lesions (Gorlin syndrome); test: Clinical response of BCC lesions in patient treated with vismodegib (case study); assay type: in vivo, human; conditions: 150 mg daily, six months after commencing therapy
Source text: (§2) A nulliparous person with a known diagnosis of Gorlin syndrome (Basal cell carcinoma nevus syndrome: Online Mendelian Inheritance in Man #109400) presented with more than 100 discrete BCC papules on the upper trunk and head, and neck regions. They were diagnosed and treated for lymphoma in 1988, prior to the BCCNS diagnosis and received chemotherapy and radiation therapy to the mantle zone, followed by radical neck dissection. They have remained in remission and their therapy had no apparent effect on menstrual function. They experienced menarche and had regular menses at 30 to 35 day intervals until starting the current therapy. Medications included synthroid 0.15 mg for longstanding hypothyroidism.
(§3) Several of their BCC lesions, while not clinically large, appeared in this area of combined radiation and surgical sclerosis overlying the carotid sheath. Multidisciplinary consultation recommended against further surgery. They commenced therapy with vismodegib (Erivedge™ Genentech, Inc., San Francisco, Calif.) 150 mg daily. […] Shortly thereafter they underwent a reproductive endocrinology evaluation.

[4] = Reproductive endocrine testing of patient treated with vismodegib (case study); assay type: in vivo, human; conditions: patient on vismodegib 150 mg daily, about six months
Source text: as §2, §3, §1

[5] = Adverse effects and reproductive examination in patient treated with vismodegib (case study); assay type: in vivo, human; conditions: 150 mg daily
Source text: as §2, §3

[6] = shortly after six months of therapy

CS(=O)(=O)c1ccc(C(=O)Nc2ccc(Cl)c(-c3ccccn3)c2)c(Cl)c1 [vismodegib]
Effect on FSH action at FSH-R [1]: blocked the action of FSH on the FSH-R | Major side effects [2]: dysgeusia, alopecia, leg cramping, and gastrointestinal disturbances | Clinical resolution of BCC lesions [3]: near complete clinical resolution of all lesions | Follicle stimulating hormone (FSH) level ([4]; follicular phase normal 2-8 IU/L): 16.0 IU/L | Progesterone level ([4]; follicular phase range 0.2-1.5): 0.4 | Estradiol level ([4]; follicular phase range 12.5-166 pg/ml): 26.9 pg/mL | Anti-mulerian hormone (AMH) level ([4]; normal range <6.9): 2.6 | Leutinizing hormone (LH) level ([4]; ovulation phase range 14.0-95.6): 25.3 | Side effects ([5]; approximately four months after onset of amenorrhea): hair loss, slight dysgeusia, and minor leg cramping | Menstrual function ([5]; one month after start): became amenorrheic | Transvaginal ultrasonography of ovaries [5, 6]: normal ovaries, bilaterally containing multiple pre-antral follicles | Vaginal exam findings [5, 6]: moderate atrophic vaginal changes suggesting hypoestrogenism
